Source: patent US20200129513A1, “COMPOSITIONS AND METHODS FOR TREATING HEMATOLOGIC MALIGNANCIES” (UNIVERSITY OF ROCHESTER, priority 2018, published 2020)
Where two headings read alike, the source gives them in different places.

Experiments:
CA46 cell line [1] = assay: NHL p53 mutated cell line death, CellTox Green Cytotoxicity Assay; type: cell-based; settings: Homo sapiens, CA46, 54 hours culture, FIG. 10, read-out: IC50, induction of cell death of p53 mutated NHL cell line
CA46 cell line [2] = assay: NHL p53 mutated cell line viability, Cell Titer-Glo 2.0 Assay; type: cell-based; settings: Homo sapiens; CA46 (BL-derived, p.R248Q p53), 54 hours culture, Cell Titer-Glo 2.0, FIG. 9; read-out: IC50, reduction of cell viability of p53 mutated NHL cell line
Method: Luminescence was measured on a BioTek Synergy2 96-well plate reader (BioTek Instruments). Data was analysed using Prism6 software (GraphPad Software) and dose curve was generated using 4PL fit.

[3] = test system: primary AML suspension cells; assay: AML cell viability, Cell Titer-Glo 2.0 Assay; type: cell-based, human; settings: two different AML patient samples, 30 hours culture, Cell Titer-Glo 2.0, FIG. 6, read-out: IC50, reduction of AML cell viability
Method: To test this, primary AML suspension cells were treated in vitro with afatinib. Cell viability was measured by Cell Titer-Glo 2.0 Assay (Promega) in triplicate for each concentration. Two different AML patient cells (1×10^5 cells/100 μL media) were cultured for 30 hours in clear 96-well flat bottom tissue culture plates (Costar, Corning) with serial drug dilutions (100 μM afatinib (LC Laboratories) serially diluted 3-fold ending at ˜0.01 μM). Media is RPMI1640 (Cellgro, Corning) supplemented with penicillin, streptomycin, L-glutamine (Gibco, ThermoFisher Scientific), and 10% heat-inactivated fetal bovine serum (Sigma-Aldrich). After cell culture, viability was assayed according to manufacturer's directions. Luminescence was measured on a BioTek Synergy2 96-well plate reader (BioTek Instruments). Data was analysed using Prism6 software (GraphPad Software) and dose curve was generated using 4PL fit.

CLL patient cells [4] = assay: CLL cell viability, Cell Titer-Blue Cell Viability Assay; type: cell-based; settings: Homo sapiens, 48 hours culture, FIG. 1, read-out: IC50, reduction of CLL cell viability
Source text: The common off-target with the best binding was ERRB2 in the EGFR family of receptors. Afatinib (an irreversible inhibitor that covalently binds to the EGFR family of receptors (including ERBB2) active tyrosine kinase domain ATP-binding site, a similar mechanism to that of the BTK inhibitors) was chosen as an example EGFR family inhibitor to test this hypothesis. […] Media is RPMI1640 (Cellgro, Corning) supplemented with penicillin, streptomycin, L-glutamine (Gibco, ThermoFisher Scientific, Waltham, Mass.), and 10% heat-inactivated fetal bovine serum (Sigma-Aldrich, St. Louis, Mo.). After cell culture, viability was measured by Cell Titer-Blue Cell Viability Assay (Promega, Madison, Wis.) according to manufacturer's directions. Non-viable cells produce less fluorescence. Measurements were done in triplicate for each concentration. Fluorescence was measured on a BioTek Synergy2 96-well plate reader (BioTek Instruments, Winooski, Vt.). Data was analysed using Prism6 software (GraphPad Software, La Jolla, Calif.) and dose curve was generated using 4PL fit. Afatinib reduces CLL cell viability in a dose dependent manner (IC50 0.4 μM) as shown in FIG. 1 (all data points shown).

CLL patient cells [5] = assay: CLL cell viability, Cell Titer-Glo 2.0 Assay; type: cell-based, human; settings: for IC50: Homo sapiens, CLL patient cells, 48 hours culture
Method: (§1) After cell culture, viability was assayed according to manufacturer's directions. Luminescence was measured on a BioTek Synergy2 96-well plate reader (BioTek Instruments). Data was analysed using Prism6 software (GraphPad Software) and dose curve was generated using 4PL fit.
as §1, with “Cell viability was measured by Cell Titer-Glo 2.0 Assay (Promega) in triplicate for each concentration. […] After” for “After”

CLL patient cells [6] = assay: CLL cell death, CellTox Green Cytotoxicity Assay; type: cell-based; settings: Homo sapiens, 48 hours culture, FIG. 3, read-out: IC50, induction of CLL cell death
Source text: The common off-target with the best binding was ERRB2 in the EGFR family of receptors. Afatinib (an irreversible inhibitor that covalently binds to the EGFR family of receptors (including ERBB2) active tyrosine kinase domain ATP-binding site, a similar mechanism to that of the BTK inhibitors) was chosen as an example EGFR family inhibitor to test this hypothesis. […] Media is RPMI1640 (Cellgro, Corning) supplemented with penicillin, streptomycin, L-glutamine (Gibco, ThermoFisher Scientific, Waltham, Mass.), and 10% heat-inactivated fetal bovine serum (Sigma-Aldrich, St. Louis, Mo.). After cell culture, viability was measured by Cell Titer-Blue Cell Viability Assay (Promega, Madison, Wis.) according to manufacturer's directions. Non-viable cells produce less fluorescence. Measurements were done in triplicate for each concentration. Fluorescence was measured on a BioTek Synergy2 96-well plate reader (BioTek Instruments, Winooski, Vt.). Data was analysed using Prism6 software (GraphPad Software, La Jolla, Calif.) and dose curve was generated using 4PL fit. […] To test that an EGFR family inhibitor not only reduces CLL cell viability, but also induces cell death in vitro, cytotoxicity was measured by CellTox Green Cytotoxicity Assay (Promega). Dead cells produce more fluorescence in this assay. […] Fluorescence was measured on a BioTek Synergy2 96-well plate reader (BioTek Instruments). […]

AML patient cells = assay: AML cell death, CellTox Green Cytotoxicity Assay; type: cell-based; settings: Homo sapiens, one AML patient sample, 30 hours culture, FIG. 7, read-out: IC50, induction of AML cell death

SMILES: CN(C)C/C=C/C(=O)Nc1cc2c(Nc3ccc(F)c(Cl)c3)ncnc2cc1O[C@H]1CCOC1 [Afatinib]
- IC50 (CA46 cell line [1]): 22000 nM
- IC50 (CA46 cell line [2]): 3000 nM
- IC50 ([3]; Homo sapiens, 30 h): 2100 nM
- IC50 [3]: 2600 nM
- IC50 (CLL patient cells [4]): 400 nM
- IC50 (CLL patient cells [5]; read-out: IC50, reduction of CLL cell viability (afatinib vs ibrutinib comparison), Cell Titer-Glo 2.0, FIG. 4): 500 nM
- IC50 (CLL patient cells [5]; Cell Titer-Glo 2.0, FIG. 2, read-out: IC50, reduction of CLL cell viability): 300 nM
- fold lower concentration than ibrutinib for reduction of CLL cell viability (CLL patient cells [5]; ratio of IC50 values, FIG. 4): 20 fold
- IC50 (CLL patient cells [6]): 12000 nM
- IC50 (AML patient cells): 19000 nM
